Experimental data: patent EP4095134A1, “POLYCYCLIC COMPOUNDS FOR THE TREATMENT OF NEUROLOGICAL INDICATIONS” (UCL Business Ltd, priority 2021, dated 2022)

Biological target: T1, P2Y1 receptor (Homo sapiens, UniProt P47900)
T1 construct: expressed in transfected cells
Test: P2Y1 IP1 accumulation HTRF assay, antagonism of agonist MRS2365 in stably transfected cells
Type: cell-based
Settings: 5nM MRS2365, values rounded to nearest whole number
Method in brief: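 HTRF IP1 accumulation in stably P2Y1-overexpressing cells, plated the day before. Compounds pre-incubated 1 hour (10-point semi-log curve from 10µM, 0.1% DMSO), then 5nM MRS2365 added for 60 minutes, both at 37°C / 5% CO2. IP1 interpolated from standard curve; IC50 from N ≥ 4 runs.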

T1 sequence (P47900 whole entry): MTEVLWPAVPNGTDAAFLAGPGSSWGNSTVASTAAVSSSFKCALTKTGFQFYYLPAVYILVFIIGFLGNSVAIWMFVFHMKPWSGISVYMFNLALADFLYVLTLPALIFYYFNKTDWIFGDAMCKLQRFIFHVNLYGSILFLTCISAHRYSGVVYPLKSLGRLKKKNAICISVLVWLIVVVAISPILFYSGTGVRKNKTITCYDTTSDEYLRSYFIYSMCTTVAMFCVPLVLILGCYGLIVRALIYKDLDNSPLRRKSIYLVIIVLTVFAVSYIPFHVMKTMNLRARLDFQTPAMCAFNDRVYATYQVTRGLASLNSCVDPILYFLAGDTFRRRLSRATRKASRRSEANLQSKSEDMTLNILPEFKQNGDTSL

Structure (SMILES) | IC50 (racemic, N >= 4) [nM] | IC50 (single enantiomer) [nM]
CN1CCC1(c1ccccc1Oc1ncccc1NC(=O)Nc1ccc(OC(F)(F)F)cc1)C(F)F (racemic) [S35] | 197 | –
Cc1ccc(NC(=O)Nc2ccc(Cl)cc2F)c(Oc2ccccc2[C@@]2(C(F)(F)F)CCO2)n1 [S114] | – | 41
CN1CC[C@@]1(c1ccccc1Oc1ncccc1NC(=O)Nc1ccc(OC(F)(F)F)cc1F)C(F)(F)F (single isomer, unassigned) [S98] | – | 26
O=C(Nc1ccc(OC(F)(F)F)cc1)Nc1cccnc1Oc1ccccc1[C@]1(C(F)(F)F)CCO1 [S111] | – | 119
Cc1ccc(NC(=O)Nc2ccc(C#N)cc2F)c(Oc2ccc(F)cc2C2(C(F)(F)F)CCO2)n1 (racemic) [S56, 1-(4-cyano-2-fluorophenyl)-3-(2-(4-fluoro-2-(2-(trifluoromethyl)oxetan-2-yl)phenoxy)-6-methylpyridin-3-yl)urea] | 587 | –
Cc1ccc(NC(=O)Nc2ccc(Cl)c(F)c2)c(Oc2ccccc2C2(C(F)(F)F)CCO2)n1 (racemic) [S17, 1-(4-chloro-3-fluorophenyl)-3-(6-methyl-2-(2-(2-(trifluoromethyl)oxetan-2-yl)phenoxy)pyridin-3-yl)urea] | 114 | –
COc1ccc2nc(Nc3cccnc3Oc3ccc(F)cc3C3(C(F)(F)F)CCO3)[nH]c2n1 (racemic) [S119] | 721 | –

Now from value to compound, other results behind:

IC50 (racemic, N >= 4) [nM] | Structure (SMILES) | IC50 (single enantiomer) [nM]
983 | O=C(Nc1ccc(F)cc1F)Nc1cccnc1Oc1ccccc1C1(C(F)(F)F)CCO1 (racemic) [S65, 1-(2,4-difluorophenyl)-3-(2-(2-(2-(trifluoromethyl)oxetan-2-yl)phenoxy)pyridin-3-yl)urea] | –
84 | O=C(Nc1ccc(OC(F)(F)F)cc1)Nc1cccnc1Oc1ccccc1C1(C(F)(F)F)CCO1 (racemic) [S11, 1-(4-(trifluoromethoxy)phenyl)-3-(2-(2-(2-(trifluoromethyl)oxetan-2-yl)phenoxy)pyridin-3-yl)urea] | –
334 | O=C(Nc1ccc(OC(F)F)cc1)Nc1cccnc1Oc1ccccc1C1(C(F)(F)F)CCO1 (racemic) [S43] | –
94 | O=C(Nc1ccc(OC(F)(F)F)cc1F)Nc1ccc(Cl)nc1Oc1ccccc1C1(C(F)(F)F)CCO1 (racemic) [S14, 1-(6-chloro-2-(2-(2-(trifluoromethyl)oxetan-2-yl)phenoxy)pyridin-3-yl)-3-(2-fluoro-4-(trifluoromethoxy)phenyl)urea] | –
1690 | FC(F)(F)c1nnc(Nc2cccnc2Oc2ccccc2C2(C(F)(F)F)CCO2)s1 (racemic) [S73] | –
153 | O=C(Nc1ccc(Cl)cc1)Nc1cccnc1Oc1ccccc1C1(C(F)(F)F)CCO1 (racemic) [S27, 1-(4-chlorophenyl)-3-(2-(2-(2-(trifluoromethyl)oxetan-2-yl)phenoxy)pyridin-3-yl)urea] | –
